We go through 30 molecules from PMC8025584, “Identification of multipotent drugs for COVID-19 therapeutics with the evaluation of their SARS-CoV2 inhibitory activity” (Computational and Structural Biotechnology Journal, 2021).

On the set-up of data set [1]: method as in PMID 26506265, PMID 24466249, PMID 22454559. Conditions: cited from earlier work.
The next data set can be described thus: in vitro. Conditions: monkey.
The test system of data set [2] is SARS-CoV2 virus (IND/ILS-01/2020). Description: Drug assay: viral load by real-time RT-PCR in SARS-CoV2 infected Vero E6 cells. It counts as cell-based. As to conditions: Vero E6, 0.1 MOI, 24 h treatment, cell-associated viral RNA by RT-PCR. For orientation: Quantitative PCR measures a nucleic acid by following its amplification.
Another data set deals with SARS-CoV2. More on the design: method as in PMID 33330842. Conditions: cited from earlier work.
The subject of a further data set is Vero E6 cells. As to conditions: Vero E6, MTT, 0.01-20 µM.
Data set [3] concerns differentially expressed human proteins in COVID-19. Conditions: cited from earlier work.
Where [4] appears, read: Severe acute respiratory syndrome coronavirus 2, Vero C1008.
The mark [5] stands for this setting: gene TNF, drug-gene interaction listed in DGIdb export, ref DGIdb.

Read-outs that look alike come from different tables or passages of the source.

A word on the IC50: it is the concentration that gives 50% inhibition.

As for `CC(C)(O)c1ccccc1CC[C@@H](SCC1(CC(=O)O)CC1)c1cccc(/C=C/c2ccc3ccc(Cl)cc3n2)c1` [Montelukast], in data set [1], the “can cross blood brain barrier” value was “can cross blood brain barrier”. In “in vitro”, this molecule gave a CC50 above 20 µM.
Take `Cc1ccc(-c2cc(C(F)(F)F)nn2-c2ccc(S(N)(=O)=O)cc2)cc1` [Celecoxib]: inhibition in data set [2] (setting [4]) was half-maximal at 3.25 µM (IC50). Besides, in data set [1], the “can cross blood brain barrier” value is recorded as “can cross blood brain barrier”. In addition, the CC50 in “in vitro” was above 20 µM.
As for `CCN(CCO)CCCC(C)Nc1ccnc2cc(Cl)ccc12` (stereo not drawn) [Hydroxychloroquine], in data set [2] (setting [4]), the IC50 is 5 µM. In the data set “in vitro”, this molecule displayed a CC50 above 20 µM.
`OC(CNCC(O)C1CCc2cc(F)ccc2O1)C1CCc2cc(F)ccc2O1` (stereo not drawn) [Nebivolol] showed a half-maximal inhibitory concentration (IC50) in data set [2] (setting [4]) of 5.21 µM. For the same molecule, the “inhibition of SARS-CoV2” value in the data set on SARS-CoV2 is “submicromolar range”. Besides, in data set [1], the “can cross blood brain barrier” value is given as “can cross blood brain barrier”. For the same molecule, the CC50 in the data set “in vitro” is above 20 µM.
Take Ivermectin: in data set [2], half-maximal inhibition (IC50) required 5.54 µM. In the data set with Vero E6 cells, the CC50 stood at 15 µM.
Regarding `OC(c1cc(C(F)(F)F)nc2c(C(F)(F)F)cccc12)C1CCCCN1` (stereo not drawn) [Mefloquine], in data set [2] (setting [4]), the half-maximal inhibitory concentration (IC50) amounted to 0.37 µM. Moreover, the CC50 in “in vitro” was above 20 µM.
Capreomycin: half-maximal inhibition in data set [2] (IC50) required 1 µM. Besides, the CC50 with Vero E6 cells is above 20 µM.
Turning to `C[C@]12C=CC(=O)C=C1CC[C@@H]1[C@@H]2CC[C@]2(C)OC(=O)CC[C@@H]12` [TESTOLACTONE], the interaction_types result in data set [3] (gene CYP19A1, ref DGIdb) is listed as “inhibitor”.
Regarding `CC(C)COCC(CN(Cc1ccccc1)c1ccccc1)N1CCCC1` (stereo not drawn) [BEPRIDIL], in data set [3] (gene CACNA1A, drug-gene interaction listed in DGIdb export, ref DGIdb), the interaction_types result was “inhibitor”.
On to `NS(=O)(=O)c1cc2c(cc1C(F)(F)F)NCNS2(=O)=O` [HYDROFLUMETHIAZIDE], for which, in data set [3] (gene CA1, ref DGIdb), the interaction_types result is “inhibitor”.
As for `CC(C)c1ccc2oc3nc(N)c(C(=O)O)cc3c(=O)c2c1` [AMLEXANOX, reference compound], the interaction_types result in data set [3] (gene S100A12, ref DGIdb) was “antagonist”; in data set [3] (gene S100A13, drug-gene interaction listed in DGIdb export, ref DGIdb) it was “antagonist”.
For the molecule `NS(=O)(=O)c1cc(Cl)c(Cl)c(S(N)(=O)=O)c1` [DICHLORPHENAMIDE], the interaction_types result in data set [3] (gene CA1, ref DGIdb) is “inhibitor”.
Take `O=C1Nc2ccccc2/C1=C1/Nc2ccccc2C1=O` [INDIRUBIN]: in data set [3], the interaction_types entry was “substrate”.
Consider `Nc1ncnc2c1ncn2[C@@H]1O[C@H](COP(=O)(O)O)[C@@H](O)[C@H]1O` [ADENOSINE PHOSPHATE], for which the interaction_types entry in data set [3] (gene PRKAB1, ref DGIdb) is recorded as “activator”.
Turning to `CCC1NC(=O)c2cc(S(N)(=O)=O)c(Cl)cc2N1` (stereo not drawn) [QUINETHAZONE], the interaction_types entry in data set [3] (gene CA1, ref DGIdb) is recorded as “inhibitor”.
Take `CC/C=C\C/C=C\C/C=C\C/C=C\C/C=C\C/C=C\CCC(=O)O` [DOCONEXENT]: the interaction_types result in data set [3] (gene RXRB, ref DGIdb) is “activator”.
Consider `CCCCCC/C=C\CCCCCCCCCC(=O)N[C@H]1[C@H](OC[C@H]2O[C@H](OP(=O)(O)O)[C@H](NC(=O)CC(=O)CCCCCCCCCCC)[C@@H](OCCCCCCCCCC)[C@@H]2O)O[C@H](COC)[C@@H](OP(=O)(O)O)[C@@H]1OCC[C@@H](CCCCCCC)OC` [ERITORAN TETRASODIUM], for which the interaction_types result in data set [3] (gene LY96, ref DGIdb) was “antagonist”.
Consider `C/C(=C\c1ccc(OCCN2CCOCC2)cc1)c1ccc2c(c1)C(C)(C)CCC2(C)C` [MOFAROTENE], for which the interaction_types result in data set [3] (gene RXRB, ref DGIdb) was “modulator”.
For the molecule `C[C@H]1c2cccc(O)c2C(=O)C2=C(O)[C@]3(O)C(=O)C(C(N)=O)=C(O)[C@@H](N(C)C)[C@@H]3[C@@H](O)[C@@H]21` [DOXYCYCLINE], in data set [3] (gene MMP8, ref DGIdb), the interaction_types result is given as “inhibitor”.
With `CCS(=O)(=O)N1CC(CC#N)(n2cc(-c3ncnc4[nH]ccc34)cn2)C1` [BARICITINIB], the interaction_types entry is “inhibitor” in data set [3] (gene GAK, drug-gene interaction listed in DGIdb export, ref DGIdb) and “inhibitor” in data set [3] (gene PTK2B, ref DGIdb).
Turning to NADROPARIN, the interaction_types result in data set [3] (gene FOS, ref DGIdb) was “inhibitor”.
As to `CC(O)(P(=O)(O)O)P(=O)(O)O` [ETIDRONIC ACID], in data set [3] (gene SLC25A4, ref DGIdb), the interaction_types result was “inhibitor”.

B1: DACLIZUMAB (antibody, chains of the INN, looked up, V domains shown)
VH: QVQLVQSGAEVKKPGSSVKVSCKASGYTFTSYRMHWVRQAPGQGLEWIGYINPSTGYTEYNQKFKDKATITADESTNTAYMELSSLRSEDTAVYYCARGGGVFDYWGQGTLVTVSS
VL: DIQMTQSPSTLSASVGDRVTITCSASSSISYMHWYQQKPGKAPKLLIYTTSNLASGVPARFSGSGSGTEFTLTISSLQPDDFATYYCHQRSTYPLTFGQGTKVEVK
Turning to B1, in data set [3] (gene IL2RG, ref DGIdb), the interaction_types entry is “inhibitor”.

B2: LENOGRASTIM (protein, UniProt P09919 31-207, looked up)
Granulocyte …: TPLGPASSLPQSFLLKCLEQVRKIQGDGAALQEKLVSECATYKLCHPEELVLLGHSLGIPWAPLSSCPSQALQLAGCLSQLHSGLFLYQGLLQALEGISPELGPTLDTLQLDVADFATTIWQQMEELGMAPALQPTQGAMPAFASAFQRRAGGVLVASHLQSFLEVSYRVLRHLAQP
modifications: glycosylated
Regarding B2, in data set [3] (gene CSF3R, ref DGIdb), the interaction_types entry was “agonist”.

B3: OTLERTUZUMAB (antibody, chains of the INN, looked up, V domains shown)
VH: EVQLVQSGAEVKKPGESLKISCKGSGYSFTGYNMNWVRQMPGKGLEWMGNIDPYYGGTTYNRKFKGQVTISADKSISTAYLQWSSLKASDTAMYYCARSVGPFDSWGQGTLVTVSS
VL: EIVLTQSPATLSLSPGERATLSCRASENVYSYLAWYQQKPGQAPRLLIYFAKTLAEGIPARFSGSGSGTDFTLTISSLEPEDFAVYYCQHHSDNPWTFGQGTKVEIK
Consider B3, for which the interaction_types entry in data set [3] (gene CD37, ref DGIdb) is listed as “antibody”.

B4: ONERCEPT (protein, UniProt P19438 30-211, looked up)
extracellular domain: LVPHLGDREKRDSVCPQGKYIHPQNNSICCTKCHKGTYLYNDCPGPGQDTDCRECESGSFTASENHLRHCLSCSKCRKEMGQVEISSCTVDRDTVCGCRKNQYRHYWSENLFQCFNCSLCLNGTVHLSCQEKQNTVCTCHAGFFLRENECVSCSNCKKSLECTKLCLPQIENVKGTEDSGTT
modifications: extracellular domain
For the molecule B4, in data set [3] (setting [5]), the interaction_types result is recorded as “inhibitor”.

B5: PEGSUNERCEPT (protein, UniProt P19438 30-211, looked up)
extracellular domain: B4 extracellular domain
modifications: extracellular domain PEGylated
Take B5: the interaction_types entry in data set [3] (setting [5]) is given as “inhibitor”.

B6: CERTOLIZUMAB PEGOL (antibody, chains of the INN, looked up, V domains shown)
VH: EVQLVESGGGLVQPGGSLRLSCAASGYVFTDYGMNWVRQAPGKGLEWMGWINTYIGEPIYADSVKGRFTFSLDTSKSTAYLQMNSLRAEDTAVYYCARGYRSYAMDYWGQGTLVTVSS
VL: DIQMTQSPSSLSASVGDRVTITCKASQNVGTNVAWYQQKPGKAPKALIYSASFLYSGVPYRFSGSGSGTDFTLTISSLQPEDFATYYCQQYNIYPLTFGQGTKVEIK
modifications: Fab' PEGylated
Take B6: the interaction_types result in data set [3] (setting [5]) was “inhibitor”.

B7: TABALUMAB (antibody, chains of the INN, looked up, V domains shown)
VH: QVQLQQWGAGLLKPSETLSLTCAVYGGSFSGYYWSWIRQPPGKGLEWIGEINHSGSTNYNPSLKSRVTISVDTSKNQFSLKLSSVTAADTAVYYCARGYYDILTGYYYYFDYWGQGTLVTVSS
VL: EIVLTQSPATLSLSPGERATLSCRASQSVSRYLAWYQQKPGQAPRLLIYDASNRATGIPARFSGSGSGTDSTLTISSLEPEDFAVYYCQQRSNWPRTFGQGTKVEIK
Consider B7, for which the interaction_types result in data set [3] (gene TNFSF13B, drug-gene interaction listed in DGIdb export, ref DGIdb) was “inhibitor”.

B8: ASELIZUMAB (antibody, chains of the INN, looked up, V domains shown)
VH: EVQLVESGGGLVQPGGSLRLSCAASGFTFSTYAMSWVRQAPGKGLEWVASISTGGSTYYPDSVKGRFTISRDNAKNTLYLQMNSLRAEDTAVYYCARDYDGYFDYWGQGTLVTVSS
VL: DIQMTQSPSSLSASVGDRVTITCKASQSVDYDGDSYMNWYQQKPGKAPKLLIYAASNLESGIPSRFSGSGSGTDFTLTISSLQPEDFATYYCQQSNEDPWTFGQGTKVEIK
Turning to B8, the interaction_types result in data set [3] (gene SELL, ref DGIdb) is recorded as “inhibitor”.
